Where two headings read alike, the source gives them in different places.
What was measured:
jack bean urease [1] = target: T1, jack bean urease (Canavalia ensiformis, UniProt P07374); assay: Urease inhibition assay; assay type: biochemical; conditions: for % inhibition: value in parentheses after IC50, concentration not given
jack bean urease [2] = target: T1, jack bean urease; assay: Enzyme kinetic studies; assay type: biochemical; conditions: for Mode of inhibition: Lineweaver–Burk plots
[3] = at 20 μM concentration of the inhibitor

T1 sequence (P07374 whole entry, looked up): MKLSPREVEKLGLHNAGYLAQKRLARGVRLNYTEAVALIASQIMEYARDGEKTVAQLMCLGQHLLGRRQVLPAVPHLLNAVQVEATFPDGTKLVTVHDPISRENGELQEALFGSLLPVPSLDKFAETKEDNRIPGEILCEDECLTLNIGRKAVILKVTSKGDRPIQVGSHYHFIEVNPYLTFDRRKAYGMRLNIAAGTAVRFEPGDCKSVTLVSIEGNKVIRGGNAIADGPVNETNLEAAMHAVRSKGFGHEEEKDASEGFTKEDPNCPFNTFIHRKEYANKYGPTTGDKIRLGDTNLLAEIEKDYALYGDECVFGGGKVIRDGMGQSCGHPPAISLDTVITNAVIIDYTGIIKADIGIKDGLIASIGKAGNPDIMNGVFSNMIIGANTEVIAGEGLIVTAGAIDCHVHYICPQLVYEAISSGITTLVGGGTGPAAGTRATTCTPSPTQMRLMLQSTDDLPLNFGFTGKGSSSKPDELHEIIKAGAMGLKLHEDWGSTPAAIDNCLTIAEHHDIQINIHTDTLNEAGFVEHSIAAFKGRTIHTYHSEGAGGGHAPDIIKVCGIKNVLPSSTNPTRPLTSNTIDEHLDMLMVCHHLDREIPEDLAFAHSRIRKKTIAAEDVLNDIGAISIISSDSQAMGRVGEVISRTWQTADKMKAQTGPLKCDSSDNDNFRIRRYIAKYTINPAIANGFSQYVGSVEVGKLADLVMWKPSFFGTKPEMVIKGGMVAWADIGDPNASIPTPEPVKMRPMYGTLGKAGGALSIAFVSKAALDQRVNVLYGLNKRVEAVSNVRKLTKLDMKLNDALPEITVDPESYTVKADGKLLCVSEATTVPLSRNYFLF

SMILES | IC50 (jack bean urease [1]) | % inhibition (jack bean urease [1]) | Ki (jack bean urease [2]) | Mode of inhibition (jack bean urease [2]) | K m(app) (jack bean urease [2]; [3]) | V max(app) (jack bean urease [2]; [3]) | Ki (jack bean urease [2]; derived from Lineweaver–Burk and Dixon plots)
CCCCCCCC(=O)NC(=S)Nc1cc(C)ccc1C [Compound 3d, N-(2′,5′-Dimethylphenylcarbamothioyl) octanamide] | 60.1 ± 0.78 µM | 61.3% | – | – | – | – | –
CCCCCCCC(=O)NC(=S)Nc1ccc(C)c(C)c1 [Compound 3f, N-(3′,4′-Dimethylphenylcarbamothioyl) octanamide] | 40.2 ± 0.45 µM | 76.2% | – | – | – | – | –
CCCCCCCC(=O)NC(=S)Nc1c(C)cccc1C [Compound 3g, N-(2′,6′-Dimethylphenylcarbamothioyl) octanamide] | 15.2 ± 0.58 µM | 96.3% | 9.28 µM | Competitive | 6.09 mM | 15.63 µM/min | –
CCCCCCCC(=O)NC(=S)Nc1cc([N+](=O)[O-])ccc1OC [Compound 3h, N-(2′-Methoxy-5′-nitrophenylcarbamothioyl) octanamide] | 30.6 ± 0.75 µM | 88.1% | – | – | – | – | –
CCCCCCCC(=O)NC(=S)Nc1c(Cl)cccc1Cl [Compound 3i, N-(2′,6′-Dichlorophenylcarbamothioyl) octanamide] | 22 ± 0.45 µM | 91.4% | – | – | – | – | –
CCCCCCCC(=O)NC(=S)Nc1ccccc1Sc1ccccc1 [Compound 3j, N-(2′-(Phenylthio)phenylcarbamothioyl) octanamide] | 39.1 ± 0.72 µM | 86.5% | – | – | – | – | –
CCCCCCCC(=O)NC(=S)Nc1cccc(C)c1C [Compound 3k, N-(2′,3′-Dimethylphenylcarbamothioyl) octanamide] | 46.2 ± 0.78 µM | 85.8% | – | – | – | – | –
CCCCCCCC(=O)NC(=S)Nc1ccc(C(F)(F)F)cc1 [Compound 3m, N-(4′-(Trifluoromethyl)phenylcarbamothioyl) octanamide] | 31.16 ± 0.25 µM | 95.9% | – | – | – | – | –
CCCCCCCCCCCC(=O)NC(=S)Nc1ccc(Cl)c(Cl)c1 [Compound 3p, N-(3′,4′-Dichlorophenylcarbamothioyl) dodecanamide] | 20.2 ± 0.48 µM | 85.2% | – | – | – | – | –
NC(N)=S [Thiourea, reference compound] | – | 92.1% | – | Competitive | 2.18 mM | – | 18.2 µM

— publication PMC8981555 (RSC Advances, 2022)
